In US20040039060A1, “Inhibitor for enzyme having two divalent metal ions as active centers” (priority 2000, published 2004):

How the values were obtained:
[1] = target: HIV-1 integrase (Human immunodeficiency virus type 1 group M subtype B, UniProt P04585); assay: HIV-1 integrase inhibition assay (microtiter plate, immobilised substrate DNA, Dig-labelled target DNA, OD 405 nm); type: biochemical
Experimental: Substrate DNA and target DNA, which sequences were indicated below, were synthesized by Amersham Pharmacia Biotech and dissolved in KTE buffer (composition: 100 mM KCl, 1 mM EDTA, 10 mM Tris-HCl (pH 7.6)) at concentration of 2 pmol/μl and 5 pmol/μl, respectively. The DNA solutions were annealed with each complement by slowly cooling after heating.
Streptavidin, obtained from Vector Laboratories, was dissolved in 0.1 M carbonate buffer (composition: 90 mM Na2CO3, 10 mM NaHCO3) at concentration of 40 μg/ml. After coating each well of microtiter plates (obtained from NUNC) with 50 μl of the above solution at 4° C. overnight, each well was washed twice with PBS (composition: 13.7 mM NaCl, 0.27 mM KCl, 0.43 mM Na2HPO4, 0.14 mM KH2PO4) and blocked with 300 μl of 1% skim milk in PBS for 30 min. Additionally, each well was washed twice with PBS and added 50 μl of substrate DNA solution (2 pmol/μl). The microtiter plates were kept at room temperature for 30 min. Then, each well was washed twice with PBS and once with H2O.
Subsequently, in the each well prepared above were added 45 μl of the reaction buffer prepared from 12 μl of the buffer (composition: 150 mM MOPS (pH 7.2), 75 mM MnCl2, 50 mM 2-mercaptoethanol, 25% glycerol, 500 μg/ml bovine serum albumin-fraction V), 1 μl of target DNA (5 pmol/μl), and 32 μl of the distilled water. Additionally, 6 μl of either a test compound in DMSO or DMSO for positive control(PC) was mixed with the above reaction buffer, then 9 μl of an integrase solution (30 pmol) was added and mixed well. In the well of negative control (NC) was added 9 μl of the integrase dilution buffer (composition: 20 mM MOPS (pH7.2), 400 mM potassium glutamate, 1 mM EDTA, 0.1% NP-40, 20% glycerol, 1 mM DTT, 4M urea).
The microtiter plates were incubated at 30° C. for 1 hour. The reaction solution was removed and each well was washed twice with PBS. Subsequently, each well of the microtiter plates was filled with 100 μl of anti-digoxigenin antibody labeled with alkaline phosphatase (Sheep Fab fragment: obtained from Boehringer) and incubated at 30° C. for 1 hour. Then, each well was washed twice with 0.05% Tween20 in PBS and once with PBS. Next, 150 μl of the Alkaline phosphatase reaction buffer (composition: 10 mM p-Nitrophenylphosphate (obtained from Vector Laboratories), 5 mM MgCl2, 100 mM NaCl, 100 mM Tris-HCl (pH 9.5)) was added in each well. […] The optical density (OD) at 405 nm of each well was measured and the percent inhibition was determined by the following expression.
The percent inhibition (%)=100[1-{(C abs.−NC abs.)/(PC abs.−NC abs.)}]
When the percent inhibition (%) is X % at the concentration of x μg/ml and the percent inhibition (%) is Y % at the concentration of y μg/ml, one of which is more than 50% and the other is less than 50%, IC50 can be determined by the following expression.
IC50(μg/ml)=x-{(X-50)(x-y)/(X-Y)}
Compound No. in the Table 1 is the same as compound No. of the above example.

| SMILES | melting point | IC50 [1] [µM] |
| --- | --- | --- |
| COC(=O)C(=O)c1oc2ccc(Cc3ccc(F)cc3)cc2c1O [Compound E-5, [5-(4-Fluoro-benzyl)-3-hydroxy-benzofuran-2-yl]-2-oxo-acetic acid methyl ester] | 128 to 130 °C |  |
| Cc1cc(C(O)=Cc2cc(CCc3ccccc3)ncn2)no1 [Compound C-6] |  | 2.73 |
| O=C(O)C(O)=Cc1cnc(CCc2ccccc2)cn1 [Compound C-7] |  | 2.26 |
| Cc1cc(C(O)=CC(=O)c2ccc(Cc3ccc(F)cc3)o2)on1 [Compound B-7, 1-[5-(4-Fluorobenzyl)furan-2-yl]-3-hydroxy-3-(3-methylisoxazol-5-yl)-propenone] | 106 to 107 °C | > 306 |
| OC(=Cc1cc(CCc2ccccc2)ncn1)c1nccs1 [Compound C-4] |  | 1.94 |
| O=C(O)c1ccnc(C(O)=CC(=O)c2ccc(Cc3ccc(F)cc3)o2)c1 [Compound A-5, 3(4-Carboxypyridin-2-yl)-1-[5-(4-fluorobenzyl)furan-2-yl]-3-hydroxy-propenone] | 208 to 210 °C | 0.191 |
| O=C(O)C(=O)c1oc2ccc(OCc3ccc(F)cc3)cc2c1O [Compound E-2, [5-(4-Fluoro-benzyloxy)-3-hydroxy-benzofuran-2-yl]-2-oxo-acetic acid] |  | 7.87 |
| O=C(C=C(O)c1ccoc1)c1ccc(Cc2ccc(F)cc2)o1 [Compound B-2, 1-[5-(4-Fluorobenzyl)furan-2-yl]-3-(furan-37yl)-3-hydroxy-propenone] | 53 to 55 °C | > 320 |
| Cc1cc(C(O)=CC(=O)c2ccc(Cc3ccc(F)cc3)o2)no1 [Compound A-10, 1-[5-(4-Fluorobenzyl)furan-2-yl]-3-hydroxy-3-(5-methylisoxazol-3-yl)-propenone] | 95 to 97 °C | 5.5 |
| O=C(C=C(O)c1cccs1)c1ccc(Cc2ccc(F)cc2)o1 [Compound B-3, 1-[5-(4-Fluorobenzyl)furan-2-yl]-3-(thiophen-2-yl)-3-hydroxy-propenone] | 50 to 52 °C | > 305 |
| O=C(C=C(O)c1cc2ccccc2cn1)c1ccc(Cc2ccc(F)cc2)o1 [Compound A-7, 1-[5-(4-Fluorobenzyl)furan-2-yl]-3-hydroxy-3-(isoquinolin-3-yl)-propenone] | 154 to 156 °C | 3.75 |
| O=C(C=C(O)c1cccnc1)c1ccc(Cc2ccc(F)cc2)o1 [Compound B-4, 1-[5-(4-Fluorobenzyl)furan-2-yl]-3-hydroxy-3-(pyridin-3-yl)-propenone] | 53 to 54 °C | > 309 |
| O=C(/C=C(\O)c1ccc[nH]1)c1ccc(Cc2ccc(F)cc2)o1 [Compound B-6, 1-[5-(4-Fluorobenzyl)furan-2-yl]-3-hydroxy-3-(pyrrol-2-yl)-propenone] |  | > 321 |
| O=C(C=C(O)c1ccccn1)c1ccc(Cc2ccc(F)cc2)o1 [Compound A-4, 1-[5-(4-Fluorobenzyl)furan-2-yl]-3-hydroxy-3-(pyridin-2-yl)-propenone] | 84 to 85 °C | 0.619 |
| O=C(C=C(O)c1ccon1)c1ccc(Cc2ccc(F)cc2)o1 [Compound A-9, 1-[5-(4-Fluorobenzyl)furan-2-yl]-3-hydroxy-3-(isoxazol-3-yl)-propenone] | 50 to 52 °C | 10.5 |
| O=C(C=C(O)c1cnccn1)c1ccc(Cc2ccc(F)cc2)o1 [Compound A-3, 1-[5-(4-Fluorobenzyl)furan-2-yl]-3-hydroxy-3-(pyrazin-2-yl)-propenone] | 127 to 129 °C | 1.85 |

| SMILES | melting point | IC50 [1] [µM] |
| --- | --- | --- |
| O=C(c1ccccn1)c1oc2ccc(Cc3ccc(F)cc3)cc2c1O [Compound E-8, 1-[5-(4-Fluoro-benzyl)-3-hydroxy-benzofuran-2-yl]-1-pyridine-2-yl-methanone] | 258 °C (dec.) |  |
| OC(=Cc1cc(CCc2ccccc2)ncn1)c1nnn[nH]1 [Compound C-2] |  | 4.76 |
| Cn1cccc1C(O)=CC(=O)c1ccc(Cc2ccc(F)cc2)o1 [Compound B-5, 1-[5-(4-Fluorobenzyl)furan-2-yl]-3-hydroxy-3-(1-methylpyrrol-2-yl)-propenone] | 75 to 76 °C | > 307 |
| O=C(O)/C(O)=C/c1ccc(OCc2ccccc2)cn1 [Compound C-8] |  | 1.7 |
| O=C(C=C(O)c1ncccc1C(=O)O)c1ccc(Cc2ccc(F)cc2)o1 [Compound B-9, 3-(3-Carboxypyridin-2-yl)-1-[5-(4-fluorobenzyl)furan-2-yl]-3-hydroxy-propenone] | 127 to 130 °C | > 272 |
| O=C(O)c1ccc(C(O)=CC(=O)c2ccc(Cc3ccc(F)cc3)o2)nc1 [Compound A-6, 3-(5-Carboxypyridin-2-yl)-1-[5-(4-fluorobenzyl)furan-2-yl]-3-hydroxy-propenone] | 196 to 198 °C | 0.272 |
| O=C(C=C(O)c1ccncc1)c1ccc(Cc2ccc(F)cc2)o1 [Compound B-8, 1-[5-(4-Fluorobenzyl)furan-2-yl]-3-hydroxy-3-(pyridin-4-yl)-propenone] | 90 to 92 °C | > 309 |
| OC(=Cc1cc(CCc2ccccc2)ncn1)c1ncn[nH]1 [Compound C-3] |  | 1.7 |
| O=C(O)C(=O)c1oc2ccc(Cc3ccc(F)cc3)cc2c1O [Compound E-6, [5-(4-Fluorobenzyl)-3-hydroxy-benzofuran-2-yl]-2-oxo-acetic acid] | 207 to 210 °C |  |
| COC(=O)C(=O)c1oc2ccc(OCc3ccc(F)cc3)cc2c1O [Compound E-1, [5-(4-Fluoro-benzyloxy)-3-hydroxy-benzofuran-2-yl]-2-oxo-acetic acid methyl ester] |  | 7.55 |
| O=C(C=C(O)c1nn[nH]n1)c1ccc(Cc2ccc(F)cc2)o1 [Compound A-1, 1-[5-(4-Fluorobenzyl)furan-2-yl]3-hydroxy-3-(2H-tetrazol-5-yl)-propenone] | 121 to 123 °C | 1.27 |
| Cc1cc(C(O)=Cc2cc(CCc3ccccc3)ncn2)on1 [Compound D-1] |  | > 325 |
| O=C(C=C(O)c1ncccn1)c1ccc(Cc2ccc(F)cc2)o1 [Compound A-2, 1-[5-(4-Fluorobenzyl)furan-2-yl]-3-hydroxy-3-(pyrimidin-2-yl)-propenone] | 77 to 80 °C | 0.247 |
| OC(=Cc1cc(CCc2ccccc2)ncn1)c1cnccn1 [Compound C-5] |  | 5.26 |
| O=C(C=C(O)c1ccco1)c1ccc(Cc2ccc(F)cc2)o1 [Compound B-1, 1-[5-(4-Fluorobenzyl)furan-2-yl]-3-(furan-2-yl)-3-hydroxy-propenone] | 44 to 45 °C | > 320 |
| O=C(O)C(O)Cc1cc(CCc2ccccc2)ncn1 [Compound D-3] |  | > 367 |
